Results from patent US4529587A, “Method of reducing sebum on the hair and skin” (Lever Brothers Company, priority 1982, dated 1985).
Where “and” joins values, the source holds several entries; their conditions need not be identical. Equal entries are not always repeated.

What was measured:
[1] = test system: acetyl-SCoA-carboxylase; assay: acetyl-SCoA-carboxylase activity in cultured human dermal fibroblasts (fixation of ^14 C-sodium bicarbonate into protein); assay type: cell-based
Experimental: In preliminary experiments the ability of biotin sulphone to reduce the activity of acetyl-SCoa-carboxylase in an in vitro assay was assessed using cultured human dermal fibroblasts as described in Ghneim et al (1981) Biochem. Soc. Trans. 9, 405-6 and references therein. Human dermal fibroblasts were maintained in culture for 3 days with 1 μM biotin sulphone in the presence of a nutrient medium containing 10% foetal calf serum. The level of naturally occurring biotin was about 10 nM. Enzyme activity was assayed in the cell pellet by the fixation of ^14 C-sodium bicarbonate into protein in the presence of acety-CoA under appropriate conditions. Control experiments were done in the absence of biotin sulphone and enzyme activities were calculated with respect to protein.

[2] = test system: FFA and "Triglyceride" lipid synthesis; assay: in vivo topical treatment of rats, ^14 C-acetate incorporation into FFA and "triglyceride" lipid (thin layer chromatography fractions); set-up: species or system rat
Experimental: (§1) Ten, 3 week male weanling rats, clipped on left and right flanks, were divided into two groups of five animals. One group was untreated on the left flank while the right flank received the test solution (1 mg/ml biotin sulphone in 70% ethanol:30% water) twice a day (once per day at weekends) for six weeks. The second group received the ethanol/water carrier on the left flank and the test solution on the right. At the end of the treatment the rats were killed, skin removed and divided approximately into epidermis and dermis using a 0.2 mm keratatome cut. Samples of dermis containing most of the sebaceous tissue from either untreated (UN), vehicle (V) or test (T) treated skin were incubated in a nutrient medium (basal eagles medium +10% foetal calf seru, 20 mM hepes pH 7.4, antibiotics, 100 μM sodium acetate containing 1 μCi/ml sodium (1-^14 C) acetate for 19 hours at 37° C. The ^14 C-acetate is metabolically incorporated into lipids and gives a "snap shot" of the lipid synthesis profile over the 19 hour time period. At the end of the incubation samples were washed in ice cold medium without ^14 C-acetate, quenched in ice cold 5% trichloroacetic acid (TCA), homogenised and centrifuged to separate insoluble residue from TCA soluble material ("TCA" fraction). The TCA fraction contains nucleo dtides, small metabolites especially succinate, amino acids, small peptides and free ^14 C-acetate. Lipids were extracted in chloroform:methanol and subject to Folch washing essentially as described by Prottey el al., Brit. J. Dermatol. (1972) 87, 586-607 generating the following fractions : "lipids", "aqueous methanol" containing only a small proportion of skin lipids with a very low ^14 C count and an extracted "solid residue". The total ^14 C count in all these fractions was determined.
The radioactive lipids were fractionated into free fatty acids (FFA) monoglycerides (MG), diglycerides (trace only) and triglyerides (TG) using a standard, neutral solvent, thin layer chromatography system.
However ^14 C-acetate is also incorporated into the cholesterol synthetic pathway which should be largely unaffected by the biotin sulphone treatment. This will cause a "dilution" of the reduction seen above. Accordingly, the lipids whose synthesis is dependent on acetyl-SCoA-carboxylase have been isolated. These are free fatty acids (FFA), monoglyceride (MG), diglyeride (trace) triglyceride (TG). It is predicted that a greater reduction in the incorporation of ^14 C-acetate into "triglyceride" lipid should now be observed. As fatty acids are the primary product made by the acetyl-SCoA-carboxylase pathway in the sebaceous gland, results for this lipid class have been included separately, as well as for total "triglyceride" lipid; values of six of the rats are given in Table 3 below: […]

[3] = test system: ^14 C-acetate uptake into dermal lipids; assay: in vivo topical treatment of rats, ^14 C-acetate uptake into dermal lipids; set-up: species or system rat
Experimental: as §1
The following ratio provides a measure of lipid synthesis per unit volume of skin, that is the total ^14 C-acetate uptake into lipids (i.e. amount of lipid synthesis) divided by the ^14 C-acetate uptake into the remaining tissue fractions (i.e. a measure of sample size). (Remaining tissue="TCA" fraction+"solid residue").

[4] = biotin sulphone treatment, rats
[5] = individual rats, 1 = 41,151 DPM ^14 C-acetate incorporated into lipid, corrected for sample size, topical 1 mg/ml, six weeks

O=C(O)CCCC[C@H]1[C@H]2NC(=O)N[C@H]2CS1(=O)=O [biotin sulphone]
nCi ^14 C-bicarbonate fixed per mg protein ([1]; 1 μM biotin sulphone, 3 days, 10% foetal calf serum, control 4.46): 3.26 nCi per mg protein
Acetyl-SCoA-carboxylase activity (%) ([1]; 1 μM biotin sulphone, 3 days, control = 100): 73%
reduction in acetyl-SCoA-carboxylase activity ([1]; culture in the presence of 1 μM biotin sulphone, vs control, 4320 min): 27%
FFA synthesis, Test, Av. ([2]; average of six rats, 1 = 41,151 DPM ^14 C-acetate, control Av. 1.50): 0.91
"Triglyceride" lipid synthesis (sum of FFA + MG + TG), Test, Av. ([2]; average of six rats, 1 = 41,151 DPM ^14 C-acetate, control Av. 18.24): 12.94
change of "Triglyceride" lipid synthesis vs control ([2]; average, Test vs V + UN): -29%
change of FFA synthesis vs control ([2]; average, Test vs V + UN): -39%
reduction of "Triglyceride" (FFA+MG+TG) synthesis [2, 4]: 29%
reduction of denovo FFA synthesis [2, 4]: 39%
"Triglyceride" lipid synthesis (sum of FFA + MG + TG), Test [2, 5]: 13.93 and 8.58 and 15.17 and 15.38 and 14.74 and 9.85
FFA synthesis, Test [2, 5]: 0.78 and 0.41 and 0.60 and 1.67 and 1.22
Av. Test ratio: ^14 C-acetate uptake into lipids divided by uptake into remaining tissue ([3]; average of ten rats, control (UN or V) Av. 0.59): 0.49
change of Av. Test ratio vs control ([3]; average, Test vs UN or V): -18%
Test ratio: ^14 C-acetate uptake into lipids divided by uptake into remaining tissue (TCA fraction + solid residue) ([3]; individual rats A-J, 1 mg/ml in 70% ethanol:30% water, topical, twice a day, six weeks, dermis incubated 19 hours at 37° C.): 0.43 and 0.23 and 0.59 and 0.44 and 0.52 and 0.53 and 0.58 and 0.39 and 0.73
overall reduction in ^14 C-acetate uptake into dermal lipids ([3]; topical application, ten rats): 18%
